The text below walks through data of patent US5567716A, “Trans and cis traumatic acid salts having cicatrizant activity associated to bacteriostatic, antiviral, antibiotic or antifungal activity” (priority 1992, dated 1996).

Data set [1] is described as follows: Physical chemical characteristics: solubility in water and organic solvents.
Data set [2] relates to PS Maltophila ATCC.13637. In words: Antibacterial activity, diffusion method in agar-germs (2.a). Format: cell-based. The method, then:
(§1) In a Tryprone Soy Agar diffusion medium ATCC (American Type Culture Collection) standard bacterial strains are inoculated, preparing a final solution of 10^6 cfu/g (colony forming unities) of the following strains:
(§2) Every plate contains 20 ml of a medium where 2 equidistant wells having a standard diameter are Formed and in each of these wells […] of the above described bacterial solution are inoculated. 2 plates are prepared for every couple of compounds to be tested at different concentrations, and For every strain, and each of these plates is compared with a white (sterile demineralized water inoculum). After the inoculum, the plates are placed in the refrigerator to favour diffusion and temporaneously blocking bacterial growth.
(§3) The compounds hexadecyltrimethylammonium traumatate and benzyldimethylhexadecylammonium traumatare respectively versus hexadecyl trimethylammonium bromide and benzyldimethylhexadecylammonium chloride are solubilized in demineralized water to Form solutions at the concentrations: 0.1; 0.5; and 1%.
(§4) The antibacterial effect is evaluated by measuring bacterial diffusion halo around the well vs white (halo absence).

Data set [3] deals with E. Coli ATCC.35218. The data set is described as above. In kind it is cell-based. How it is done:
as §1, §2, §3, §4

Data set [4] concerns Pseudomonas Aeruginosa ATCC.35422. The description is as above. In kind it is cell-based. How it is done: as §1, §2, §3, §4
Data set [5] deals with PS Cepacia ATCC.25416. Described as above. Format: cell-based. The arrangement: unit not given here. How it is done:
as §1, §2, §3, §4

The test system of data set [6] is Stafilococcus Epidermidis ATCC.14990. The description is as above. Format: cell-based. The arrangement: unit not given here. The method, then:
as §1, §2, §3, §4

Data set [7] concerns Candida Albicans ATCC.10231. Described as above. The arrangement: unit not given here. Format: cell-based. How it is done:
as §1, §2, §3, §4

Data set [8] concerns Stafilococcus Aureus ATCC.65380. Described as above. In kind it is cell-based. The arrangement: unit not given here. The method, then:
as §1, §2, §3, §4

Data set [9] relates to Aspergillus Niger ATCC 16404. The data set is described as above. In kind it is cell-based. The arrangement: unit not given here. How it is done: as §1, §2, §3, §4
The subject of data set [10] is Streptococcus Fecalis ATCC.291212. The data set is described as above. In kind it is cell-based. The arrangement: unit not given here. How it is done: as §1, §2, §3, §4
For data set [11], the system named is 3T3 fibroblasts. In words: Cellular proliferation of 3T3 fibroblasts, neutral red colorimetry (1.1a). Format: cell-based, Mice. The method, then:
Experiments on 3T3 fibroblasts
Mice 3T3 fibroblasts cultures sown at a 40.000/ml concentration on plates having 6 wells in a DMEM culture medium enriched with 10% calf serum are used. After 24 hours culture, the 90 prepared wells are divided in order to allow the analyses of the compounds of the invention, every compound to be tested being used respectively at a concentration of 0.1, 1 and 10 μg/ml by subsequent evaluations after 48 and 72 hours of incubation.
Hexadecyltrimethylammoniun (ETA) traumatare: solubilized in water and brought to the desired final concentrations of 0.1. 1 and 10 μg/ml by progressive dilutions;
Ethanolamine traumatate: solubilized in water and brought to the final concentrations of 0.1, 1 and 10 μg/ml by progressive dilutions;
Traumatic acid: neutralized with sodium hydroxyde and solubilized in water, then brought to the final concentrations of 0.1, 1 and 10 μg/ml by progressive dilutions with the culture medium.
The compounds are added to the cells after 24 hours culture. The cells number is measured by colorimetry with the neutral red intravital stain after 24, 48, 72 hours of incubation.

Bounds are passed on as bounds.

In the case of `Clc1ccc(COC(C[n+]2cc[nH]c2)c2ccc(Cl)cc2Cl)c(Cl)c1.Clc1ccc(COC(C[n+]2cc[nH]c2)c2ccc(Cl)cc2Cl)c(Cl)c1.O=C([O-])/C=C/CCCCCCCCC(=O)[O-]` (racemic) [miconazole trans-traumatate], the organic solvent solubility in data set [1] (in ethanol) is greater than 10 mg/mL. Moreover, the solubility in water in [1] (water) was greater than 10 mg/mL.

With `CCCCCCCCCCCCCCCC[N+](C)(C)Cc1ccccc1.[Cl-]` [BMA Chloride, benzyldimethylhexadecylammonium chloride, reference compound], the bacterial diffusion halo entry in [2] (sol. 0.1%) is recorded as “n.h”; in [2] (sol. 0.5%), “n.h”; in [2] (sol. 1%), 15; in [3] (sol. 0.1%), “n.h”; in data set [3] (sol. 0.5%), “n.h”; in data set [3] (sol. 1%) it was 13. Besides, the bacterial diffusion halo result in data set [4] (sol. 0.1%) was “n.h”; in [4] (sol. 0.5%) it was 12; in data set [4] (sol. 1%), 14; in data set [5] (sol. 0.1%) it was 12; in data set [5] (sol. 0.5%), 15; in data set [5] (sol. 1%), 15. Further, the bacterial diffusion halo in [6] (sol. 0.1%) is 15; in [6] (sol. 0.5%), 18; in data set [6] (sol. 1%), 19; in data set [7] (sol. 0.1%), 13; in [7] (sol. 0.5%), 15; in data set [7] (sol. 1%), 16. In addition, the bacterial diffusion halo turned out to be 17 in data set [8] (sol. 0.1%); 22 in data set [8] (sol. 0.5%); 22 in [8] (sol. 1%); 13 in [9] (sol. 0.1%); 16 in data set [9] (sol. 0.5%); 19 in data set [9] (sol. 1%). Moreover, the bacterial diffusion halo is given as 12 in data set [10] (sol. 0.1%), 14 in [10] (sol. 0.5%) and 15 in [10] (sol. 1%).

On to `CCCCCCCCCCCCCCCC[N+](C)(C)C.[Br-]` [ETA Bromide, hexadecyltrimethylammonium bromide, reference compound], for which the bacterial diffusion halo result was “n.h” in data set [2] (sol. 0.1%); 15 in data set [2] (sol. 0.5%); 21 in data set [2] (sol. 1%); “n.h” in data set [3] (sol. 0.1%); 13 in data set [3] (sol. 0.5%); 15 in [3] (sol. 1%). The bacterial diffusion halo result is “n.h” in data set [4] (sol. 0.1%); “n.h” in data set [4] (sol. 0.5%); “n.h” in data set [4] (sol. 1%); 18 in data set [5] (sol. 0.1%); 19 in data set [5] (sol. 0.5%); 22 in data set [5] (sol. 1%). The bacterial diffusion halo in data set [6] (sol. 0.1%) is recorded as 20; in [6] (sol. 0.5%), 22; in data set [6] (sol. 1%) it was 22; in data set [7] (sol. 0.1%) it was 19; in data set [7] (sol. 0.5%) it was 24; in [7] (sol. 1%), 25. Further, the bacterial diffusion halo amounted to 21 in [8] (sol. 0.1%); 24 in data set [8] (sol. 0.5%); 24 in data set [8] (sol. 1%); 19 in data set [9] (sol. 0.1%); 22 in [9] (sol. 0.5%); 22 in data set [9] (sol. 1%). For the same compound, the bacterial diffusion halo in [10] (sol. 0.1%) was determined as 20; in data set [10] (sol. 0.5%) it was 22; in [10] (sol. 1%), 22.

Turning to `NCCO.O=C(O)/C=C/CCCCCCCCC(=O)O` [ethanolamine traumatate, ethanolamine trans-traumatate], in data set [11] (0.1 μg/ml, in words), the “effect on cells proliferation” value is “able to affect cells proliferation according to a not statistically significant trend”. For the same compound, the “effect on cellular proliferation” value in data set [11] (1 μg/ml, in words, ETA salt > ethanolamine salt = traumatic acid) is given as “able to increase cellular proliferation”. For the same compound, the “cells numeration (colorimetric, neutral red)” value in data set [11] (24 hours of incubation, 0.1 (head: μg/ml), control 0.579 ± 0.021) was determined as 0.562 ± 0.013; in [11] (24 hours of incubation, 1.0 (head: μg/ml), control 0.579 ± 0.021), 0.609 ± 0.033; in data set [11] (24 hours of incubation, 10.0 (head: μg/ml), control 0.579 ± 0.021), 0.553 ± 0.027; in [11] (48 hours of incubation, 0.1 (head: μg/ml), control 1.334 ± 0.050) it was 1.415 ± 0.106; in [11] (48 hours of incubation, 1.0 (head: μg/ml), control 1.334 ± 0.050) it was 1.435 ± 0.082; in [11] (48 hours of incubation, 10.0 (head: μg/ml), control 1.334 ± 0.050, ** p < 0.01 significant reduction), 1.415 ± 0.132. In addition, the “cells numeration (colorimetric, neutral red)” value is given as 2.382 ± 0.039 in [11] (72 hours of incubation, 0.1 (head: μg/ml), control 2.360 ± 0.125); 2.463 ± 0.100 in [11] (72 hours of incubation, 1.0 (head: μg/ml), control 2.360 ± 0.125); 2.408 ± 0.085 in [11] (72 hours of incubation, 10.0 (head: μg/ml), control 2.360 ± 0.125, ** p < 0.01 significant reduction). The “time necessary for the cells to reach the confluence” value in [11] (side control experiment, ETA and ethanolamine salts > traumatic acid) was “reduce the time normally necessary for the cells to reach the confluence”. Moreover, the solubility (usually how much of the substance goes into solution per volume) in data set [1] (ethanol, organic solvent or mixture) was greater than 10000 µg/mL; in data set [1] (water), greater than 10000 µg/mL.
